Like-named read-outs stand apart in the source and are kept apart here. Where a SMILES comes first, the peptide text is derived from it. Bridges are numbered along the chain shown (N, C = ends). [ ]: non-standard residue; d: D form. The star is where a group is joined. hPhe(3-Cl-4-CF3) = N[C@@H](CCc1ccc(C(F)(F)F)c(Cl)c1)C(=O)O; NPrPhe(4-CF3) = CCCN[C@@H](Cc1ccc(C(F)(F)F)cc1)C(=O)O; NMeGly(cPent) = CN[C@H](C(=O)O)C1CCCC1; Pro(4,4-F2) = O=C(O)[C@@H]1CC(F)(F)CN1; NMeD = CN[C@@H](CC(=O)O)C(=O)O; NMeL = CN[C@@H](CC(C)C)C(=O)O; NMeA = CN[C@@H](C)C(=O)O; Pyrrolidide = C1CCN(*)C1; Ac5c = NC1(C(=O)O)CCCC1; Aze = O=C(O)[C@@H]1CCN1; Sar = CNCC(=O)O
Columns and labels:
[1] = biological target: GDP-bound NRAS wild-type protein (Homo sapiens, UniProt P01111); assay: Binding to NRAS by surface plasmon resonance (SPR), KD and KD ratio to KRAS
In short: (§1)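 Compound binding is evaluated by SPR single-cycle kinetics, with concentrations added intermittently from low to high for 75 s each. Target surfaces carry GDP-loaded biotinylated Avi-RAS at about 100–300 RU, regenerated after each cycle; temperature 30°C. A 1:1 binding model gives KD.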

HRAS wild-type protein = HRAS wild-type protein (Homo sapiens, UniProt P01112); assay: Binding to HRAS by surface plasmon resonance (SPR), KD and KD ratio to KRAS
In short: as §1

[2] = system: human lung cancer strain NCI-H441; assay type: cell-based
In short: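 Proliferation was scored by […] measured after the reagent was added to cultures kept at 37°C in 5% carbon dioxide.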

[3] = ratio of KD value for GDP-bound NRAS wild-type protein to KD value for KRAS (SPR)
[4] = ratio of KD value for HRAS wild-type protein to KD value for KRAS (SPR)
[5] = ratio of KD for GDP-bound NRAS wild-type protein to KD for KRAS
[6] = ratio of KD for HRAS wild-type protein to KD for KRAS
[7] = ratio of the KD value with respect to GDP-bound NRAS wild-type protein to the KD value with respect to KRAS
[8] = ratio of the KD value with respect to HRAS wild-type protein to the KD value with respect to KRAS

Chain of HRAS wild-type protein (P01112 whole entry): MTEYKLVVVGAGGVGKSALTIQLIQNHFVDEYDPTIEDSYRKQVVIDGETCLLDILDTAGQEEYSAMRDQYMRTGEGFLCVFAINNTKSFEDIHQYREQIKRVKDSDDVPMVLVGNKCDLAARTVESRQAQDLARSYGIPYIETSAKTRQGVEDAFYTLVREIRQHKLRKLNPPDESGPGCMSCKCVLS
Chain of GDP-bound NRAS wild-type protein (P01111 whole entry): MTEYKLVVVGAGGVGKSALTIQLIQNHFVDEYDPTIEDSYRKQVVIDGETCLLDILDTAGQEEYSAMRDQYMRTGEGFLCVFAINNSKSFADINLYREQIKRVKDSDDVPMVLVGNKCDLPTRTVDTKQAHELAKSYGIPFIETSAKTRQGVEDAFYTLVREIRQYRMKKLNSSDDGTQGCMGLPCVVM

IC50 [2] [nM]	Structure (SMILES)	NRAS /KRAS [1, 5]	HRAS /KRAS (HRAS wild-type protein; [6])	other results
2.2	CCO[C@@H]1C[C@H]2C(=O)NC3(CC(C)(C)C3)C(=O)N(C)[C@@H](C3CCCC3)C(=O)N(C)[C@H](C(=O)N(C)C)CC(=O)N(C)[C@@H](CC(C)C)C(=O)N[C@@H]([C@@H](C)CC)C(=O)N(C)CC(=O)N(C)[C@H]3C/C=C\CCN(C3=O)[C@@H](Cc3ccc(C(F)(F)F)cc3)C(=O)N(C)CC(=O)N[C@@H](CCc3ccc(C(F)(F)F)c(Cl)c3)C(=O)N2C1 [PP1751]			NRAS /KRAS [1, 3]: A (a compound having 10 or more and less than 20 is denoted as A); HRAS /KRAS (HRAS wild-type protein; [4]): A (a compound having 10 or more and less than 20 is denoted as A)
15.6	CCC[C@H]1C(=O)N[C@@H]([C@@H](C)CC)C(=O)N(C)CC(=O)N(C)[C@H]2C/C=C\CCN(C2=O)[C@@H](Cc2ccc(C)cc2)C(=O)N(C)CC(=O)N[C@@H](CCc2ccc(C(F)(F)F)c(Cl)c2)C(=O)N2C[C@H](OCC)C[C@H]2C(=O)NC2(CCC2)C(=O)N(C)[C@@H](C2CCCC2)C(=O)N(C)[C@H](C(=O)N(C)CC)CC(=O)N1C [PP1895]			NRAS /KRAS [1, 3]: A (a compound having 10 or more and less than 20 is denoted as A); HRAS /KRAS (HRAS wild-type protein; [4]): B (a compound having 3 or more and less than 10 is denoted as B)
3.6	CCCOC[C@H]1C(=O)N[C@@H]([C@@H](C)CC)C(=O)N(C)CC(=O)N(C)[C@H]2C/C=C\CCN(C2=O)[C@@H](Cc2ccc(C(F)(F)F)cc2)C(=O)N(C)CC(=O)N[C@@H](CCc2cc(F)c(C(F)(F)F)c(F)c2)C(=O)N2C[C@H](F)C[C@H]2C(=O)NC2(CC(C)(C)C2)C(=O)N(C)[C@@H](C2CCCC2)C(=O)N(C)[C@H](C(=O)N(C)CC)CC(=O)N1C [PP1697]			NRAS /KRAS [1, 3]: A (a compound having 10 or more and less than 20 is denoted as A); HRAS /KRAS (HRAS wild-type protein; [4]): A (a compound having 10 or more and less than 20 is denoted as A)
26.7	CCO[C@@H]1C[C@H]2C(=O)NC3(CC(C)(C)C3)C(=O)N(C)[C@@H](C(CC)CC)C(=O)N(C)[C@H](C(=O)N(C)C)CC(=O)N(C)[C@@H](CC)C(=O)N[C@@H]([C@@H](C)CC)C(=O)N(C)CC(=O)N(C)[C@H]3C/C=C\CCN(C3=O)[C@@H](Cc3ccc(C)cc3)C(=O)N(C)CC(=O)N[C@@H](CCc3ccc(Cl)c(Cl)c3)C(=O)N2C1 [PP2188]			NRAS /KRAS [1, 7]: AA (a compound having 20 or more is denoted as AA); HRAS /KRAS (HRAS wild-type protein; [8]): A (a compound having 10 or more and less than 20 is denoted as A)
11.2	CCC[C@H]1C(=O)N[C@@H]([C@@H](C)CC)C(=O)N(C)CC(=O)N(C)[C@H]2C/C=C\CCN(C2=O)[C@@H](Cc2ccc(C(F)(F)F)cc2)C(=O)N(C)CC(=O)N[C@@H](CCc2cc(F)c(C(F)(F)F)c(F)c2)C(=O)N2C[C@H](OCC)C[C@H]2C(=O)NC2(CCC2)C(=O)N(C)[C@@H](C2CCCC2)C(=O)N(C)[C@H](C(=O)N(C)C)CC(=O)N1C [PP1110]	A (a compound having 10 or more and less than 20 is denoted as A)	B (a compound having 3 or more and less than 10 is denoted as B)	
16.8	CCO[C@@H]1C[C@H]2C(=O)NC3(CC(C)(C)C3)C(=O)N(C)[C@@H](C(CC)CC)C(=O)N(C)[C@H](C(=O)N(C)C)CC(=O)N(C)[C@@H](CC3CC3)C(=O)N[C@@H]([C@@H](C)CC)C(=O)N(C)CC(=O)N(C)[C@H]3C/C=C\CCN(C3=O)[C@@H](Cc3ccc(C)cc3)C(=O)N(C)CC(=O)N[C@@H](CCc3cc(F)c(C(F)(F)F)c(F)c3)C(=O)N2C1 [PP2137]			NRAS /KRAS [1, 7]: A (a compound having 10 or more and less than 20 is denoted as A); HRAS /KRAS (HRAS wild-type protein; [8]): A (a compound having 10 or more and less than 20 is denoted as A)
18.3	CC[C@H](C)[C@@H]1NC(=O)[C@H](CC2CCC2)N(C)C(=O)C[C@@H](C(=O)N(C)C)N(C)C(=O)[C@H](C2CCCC2)N(C)C(=O)C2(CC(C)(C)C2)NC(=O)[C@@H]2CCCN2C(=O)[C@H](CCc2cc(F)c(C(F)(F)F)c(F)c2)NC(=O)CN(C)C(=O)[C@H](Cc2ccc(C(F)(F)F)cc2)N2CC/C=C\C[C@@H](C2=O)N(C)C(=O)CN(C)C1=O [PP1728]			NRAS /KRAS [1, 3]: A (a compound having 10 or more and less than 20 is denoted as A); HRAS /KRAS (HRAS wild-type protein; [4]): A (a compound having 10 or more and less than 20 is denoted as A)
980	CCO[C@@H]1C[C@H]2C(=O)NC3(CCC3)C(=O)N(C)[C@@H](C3CCCC3)C(=O)N(C)[C@H](C(=O)N3CCOCC3)CC(=O)N(C)[C@@H](CC(C)C)C(=O)N[C@@H]([C@@H](C)CC)C(=O)N(C)CC(=O)N(C)[C@H]3CC/C=C(/C)CN(C3=O)[C@@H](Cc3ccc(C(F)(F)F)cc3)C(=O)N(C)CC(=O)N[C@@H](CCc3cc(F)c(C(F)(F)F)c(F)c3)C(=O)N2C1 [PP1333]			NRAS /KRAS ([1]; ratio of KD with respect to GDP-bound NRAS wild-type protein to KD with respect to KRAS): C (A compound having a KD ratio of 0.1 or more and less than 3 is denoted as C); HRAS /KRAS (HRAS wild-type protein; ratio of KD with respect to HRAS wild-type protein to KD with respect to KRAS): B (a compound having 3 or more and less than 10 is denoted as B)
1	CCCN1C(=O)[C@@H]2CCN2C(=O)[C@H](C)N(C)C(=O)[C@H]([C@@H](C)CC)NC(=O)[C@H](CC(C)C)N(C)C(=O)C[C@@H](C(=O)N(C)C)N(C)C(=O)[C@H](C2CCCC2)N(C)C(=O)C2(CCCC2)NC(=O)[C@@H]2CC(F)(F)CN2C(=O)[C@H](CCc2ccc(C(F)(F)F)c(Cl)c2)NC(=O)CN(C)C(=O)[C@@H]1Cc1ccc(C(F)(F)F)cc1 [PP0436] ([NMeL]I[NMeA][Aze][NPrPhe(4-CF3)][Sar][hPhe(3-Cl-4-CF3)][Pro(4,4-F2)][Ac5c][NMeGly(cPent)][NMeD]-NMe2; lactam N-11)			NRAS /KRAS [1, 7]: C (A compound having a KD ratio of 0.1 or more and less than 3 is denoted as C); HRAS /KRAS (HRAS wild-type protein; [8]): C (A compound having a KD ratio of 0.1 or more and less than 3 is denoted as C)

Further lines, the molecule ahead of its results:

Structure (SMILES)	IC50 [2] [nM]	NRAS /KRAS [1, 5]	HRAS /KRAS (HRAS wild-type protein; [6])	other results
CCC(CC)[C@H]1C(=O)N(C)[C@H](C(=O)N(C)C)CC(=O)N(C)[C@@H](COC)C(=O)N[C@@H]([C@@H](C)CC)C(=O)N(C)CC(=O)N(C)[C@H]2C/C=C\CCN(C2=O)[C@@H](Cc2ccc(C(F)(F)F)cc2)C(=O)N(C)CC(=O)N[C@@H](CCc2cc(F)c(C(F)(F)F)c(F)c2)C(=O)N2CCCCC[C@H]2C(=O)NC2(CC(C)(C)C2)C(=O)N1C [PP3030]	22.4	AA (a compound having 20 or more is denoted as AA)	A (a compound having 10 or more and less than 20 is denoted as A)	
CCCN1C(=O)[C@@H]2CCN2C(=O)[C@H](C)N(C)C(=O)[C@H]([C@@H](C)CC)NC(=O)[C@H](CC(C)C)N(C)C(=O)C[C@@H](C(=O)N2CCCC2)N(C)C(=O)[C@H](C2CCCC2)N(C)C(=O)C2(CCCC2)NC(=O)[C@@H]2CCCN2C(=O)[C@H](CCc2ccc(C(F)(F)F)c(Cl)c2)NC(=O)CN(C)C(=O)[C@@H]1Cc1ccc(C(F)(F)F)cc1 [PP0179] ([NMeL]I[NMeA][Aze][NPrPhe(4-CF3)][Sar][hPhe(3-Cl-4-CF3)]P[Ac5c][NMeGly(cPent)][NMeD]-Pyrrolidide; lactam N-11)	4.5	C (A compound having a KD ratio of 0.1 or more and less than 3 is denoted as C)	B (a compound having 3 or more and less than 10 is denoted as B)	
CCO[C@@H]1C[C@H]2C(=O)NC3(CC(C)(C)C3)C(=O)N(C)[C@@H](C(CC)CC)C(=O)N(C)[C@H](C(=O)N(C)C)CC(=O)N(C)[C@@H](COC)C(=O)N[C@@H]([C@@H](C)CC)C(=O)N(C)CC(=O)N(C)[C@H]3C/C=C\CCN(C3=O)[C@@H](Cc3ccc(C(F)(F)F)cc3)C(=O)N(C)CC(=O)N[C@@H](CCc3cc(F)c(C(F)(F)F)c(F)c3)C(=O)N2C1 [PP2121]	11.4			NRAS /KRAS [1, 7]: AA (a compound having 20 or more is denoted as AA); HRAS /KRAS (HRAS wild-type protein; [8]): A (a compound having 10 or more and less than 20 is denoted as A)
CCC[C@H]1C(=O)N[C@@H]([C@@H](C)CC)C(=O)N(C)CC(=O)N(C)[C@H]2C/C=C\CCN(C2=O)[C@@H](Cc2ccc(C(F)(F)F)cc2)C(=O)N(C)CC(=O)N[C@@H](CCc2ccc(CC)c(OC)c2)C(=O)N2C[C@H](OCC)C[C@H]2C(=O)NC2(CC(C)(C)C2)C(=O)N(C)[C@@H](C2CCCC2)C(=O)N(C)[C@H](C(=O)N(C)C)CC(=O)N1C [PP2869]		A (a compound having 10 or more and less than 20 is denoted as A)	A (a compound having 10 or more and less than 20 is denoted as A)	IC50 ([2]; NCI-H441 cells, 4 days, CellTiter-Glo, read-out: NCl-H441 IC50): 37.6 nM
CCC[C@H]1C(=O)N[C@@H]([C@@H](C)CC)C(=O)N2CCC[C@H]2C(=O)N(C)[C@H]2C/C=C\CCN(C2=O)[C@@H](Cc2ccc(C)cc2)C(=O)N(C)CC(=O)N[C@@H](CCc2cc(F)c(C(F)(F)F)c(F)c2)C(=O)N2C[C@H](OCC)C[C@H]2C(=O)N(C)C2(CCC2)C(=O)N(C)[C@@H](C2CCCC2)C(=O)N(C)[C@H](C(=O)N2CCCCC2)CC(=O)N1C [PP3115]	5.7	A (a compound having 10 or more and less than 20 is denoted as A)	B (a compound having 3 or more and less than 10 is denoted as B)	
CCO[C@@H]1C[C@H]2C(=O)NC3(CC(C)(C)C3)C(=O)N(C)[C@@H](C(CC)CC)C(=O)N(C)[C@H](C(=O)N(C)C)CC(=O)N(C)[C@H]3CCCCC/C=C/c4ccc(cc4)C[C@@H](C(=O)N(C)CC(=O)N[C@@H](CCc4ccc(Cl)c(Cl)c4)C(=O)N2C1)N1CC/C=C\C[C@@H](C1=O)N(C)C(=O)CN(C)C(=O)[C@H]([C@@H](C)CC)NC3=O [PP3050]	19.3	AA (a compound having 20 or more is denoted as AA)	A (a compound having 10 or more and less than 20 is denoted as A)	

From patent publication EP4603105A1, “PHARMACEUTICAL COMPOSITION CONTAINING CYCLIC COMPOUND HAVING SELECTIVE KRAS INHIBITORY EFFECT AGAINST HRAS AND NRAS” (CHUGAI SEIYAKU KABUSHIKI KAISHA, priority 2022, dated 2024)
